Results as given in patent publication US20220017512A1 (SHANGHAI ENNOVABIO PHARMACEUTICALS CO., LTD., priority 2018, published 2022).

What was measured:
Format in all cases: biochemical
[1] = target: T1, Recombinant human TRKA (Homo sapiens, UniProt P04629); experiment: In vitro activity test on TRKA kinase (HTRF KinEASE TK); conditions: 14.68 μM ATP, 40 min
T1 construct: purchased Carna Biosciences
Description: (§1) Biological Test Example 1 In Vitro Activity Test on TRKA, TRKB, TRKC Kinase
(§2) Recombinant human TRKA, TRKB, TRKC proteins were purchased from Carna Biosciences. HTRF KinEASE TK kit was purchased from Cisbio Bioassays. Synergy Neo 2 of Biotek was used to read the plate.
(§3) The tested compound was subjected to 3-fold serial dilution to reach a final concentration of 1 μM to 0.05 nM (10 concentrations), duplicates for each concentration; and the DMSO concentration in the detection reaction was 1%.
0.2 ng/μL TRKA protein kinase, 1 μM TK Substrate-biotin polypeptide substrate, 14.68 μM ATP, 1× enzymatic buffer, 5 mM MgCl2, and 1 mM DTT. The detection plate was White Proxiplate384-Plus plate (PerkinElmer), and incubated at room temperature for 40 min, and the assay volume was 10 μL.
(§4) 10 μL of detection reagent was added to the plate (containing 0.125 μM SA-XL665 and 5 μL 1×TK-Antibody) and incubated overnight at room temperature, and Synergy Neo 2 was used to read the plate.
(§5) The 665/620 Ratio was converted according to the following formula into inhibition rate (%)=(1−Ratiotest/Ratiomax)×100%. Ratiomax was a positive control without tested compound, and Ratiotest was the value of each concentration of different compounds. IC50 (nM) data was obtained by 4 parameter curve fitting (see Table 1).

[2] = target: T2, Recombinant human TRKB (Homo sapiens, UniProt Q16620); experiment: In vitro activity test on TRKB kinase (HTRF KinEASE TK); conditions: 4.77 μM ATP, 50 min
T2 construct: purchased Carna Biosciences
T2 sequence (Q16620 32-822): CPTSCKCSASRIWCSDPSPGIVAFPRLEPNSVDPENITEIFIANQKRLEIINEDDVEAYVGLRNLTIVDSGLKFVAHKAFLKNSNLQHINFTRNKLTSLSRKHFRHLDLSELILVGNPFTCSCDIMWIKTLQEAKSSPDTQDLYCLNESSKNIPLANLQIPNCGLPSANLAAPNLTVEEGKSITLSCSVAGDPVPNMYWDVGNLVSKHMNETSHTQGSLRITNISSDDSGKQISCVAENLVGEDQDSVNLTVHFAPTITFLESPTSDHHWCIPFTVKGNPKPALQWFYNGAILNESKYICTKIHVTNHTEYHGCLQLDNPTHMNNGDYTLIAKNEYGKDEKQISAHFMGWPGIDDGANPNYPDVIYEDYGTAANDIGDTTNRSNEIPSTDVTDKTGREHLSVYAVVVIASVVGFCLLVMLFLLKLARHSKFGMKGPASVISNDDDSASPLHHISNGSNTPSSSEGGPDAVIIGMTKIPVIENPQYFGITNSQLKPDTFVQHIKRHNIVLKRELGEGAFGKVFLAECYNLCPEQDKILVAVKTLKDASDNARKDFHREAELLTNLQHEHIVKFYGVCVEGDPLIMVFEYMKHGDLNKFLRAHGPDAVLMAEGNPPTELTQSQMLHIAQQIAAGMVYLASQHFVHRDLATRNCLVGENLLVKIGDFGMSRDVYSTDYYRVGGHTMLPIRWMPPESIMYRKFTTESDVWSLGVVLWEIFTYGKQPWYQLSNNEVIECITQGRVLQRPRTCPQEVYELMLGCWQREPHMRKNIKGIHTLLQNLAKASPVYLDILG
Description: as §1, §2, §3
0.037 ng/μL TRKB protein kinase, 1 μM TK Substrate-biotin polypeptide substrate, 4.77 μM ATP, 1× enzymatic buffer, 5 mM MgCl2, and 1 mM DTT. The detection plate was White Proxiplate 384-Plus plate (PerkinElmer), and incubated at room temperature for 50 min, and the assay volume was 10 μL.
as §4, §5

[3] = target: T3, recombinant human TRKA (G595R) (Homo sapiens, UniProt P04629, G595R); experiment: In vitro activity test on mutant TRKA (G595R) (HTRF KinEASE TK); conditions: 4.5 μM ATP, 30 min
T3 construct: purchased SignalChem
T3 sequence (P04629 33-796 G595R): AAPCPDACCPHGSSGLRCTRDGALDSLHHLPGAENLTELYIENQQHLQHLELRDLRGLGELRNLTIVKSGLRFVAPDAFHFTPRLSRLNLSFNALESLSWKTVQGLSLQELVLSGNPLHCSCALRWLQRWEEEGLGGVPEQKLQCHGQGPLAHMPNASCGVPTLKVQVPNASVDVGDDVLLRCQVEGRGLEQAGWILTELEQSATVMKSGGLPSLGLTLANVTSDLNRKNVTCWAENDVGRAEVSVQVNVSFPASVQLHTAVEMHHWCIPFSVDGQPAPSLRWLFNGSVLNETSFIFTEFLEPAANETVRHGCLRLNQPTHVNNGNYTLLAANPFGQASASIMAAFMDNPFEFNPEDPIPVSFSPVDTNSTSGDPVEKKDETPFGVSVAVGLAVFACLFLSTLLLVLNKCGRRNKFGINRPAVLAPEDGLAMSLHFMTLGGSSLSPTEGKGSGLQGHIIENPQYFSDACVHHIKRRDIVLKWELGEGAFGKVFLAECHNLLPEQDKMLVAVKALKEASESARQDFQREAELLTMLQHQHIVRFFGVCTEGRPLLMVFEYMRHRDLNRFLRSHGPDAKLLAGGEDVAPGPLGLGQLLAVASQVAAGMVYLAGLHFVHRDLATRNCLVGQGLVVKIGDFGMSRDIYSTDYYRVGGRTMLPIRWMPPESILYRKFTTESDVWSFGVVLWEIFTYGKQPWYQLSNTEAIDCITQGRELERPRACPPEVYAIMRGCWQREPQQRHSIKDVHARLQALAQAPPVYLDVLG
Description: Biological Test Example 2 In Vitro Activity Test on Mutant TRKA (G595R), TRKA (G667C) and TRKC (G623R)
The recombinant human TRKA (G595R), TRKA (G667C) and TRKC (G623R) proteins were purchased from SignalChem. HTRF kinEASE TK kit was purchased from CisbioBioassays. Synergy Neo 2 of Biotek was used to read the plate.
The tested compound was subjected to 4-fold serial dilution to reach a final concentration of 1 μM to 0.004 nM (10 concentrates), duplicates for each concentration; and 1% DMSO was present in the detection reaction.
0.12 ng/μL TRKA (G595R) kinase, 1 μM TK Substrate-biotin polypeptide substrate, 4.5 μM ATP, 1× enzymatic buffer, 5 mM MgCl2, and 1 mm DTT. The detection plate was White Proxiplate384-Plus plate (PerkinElmer), and incubated at room temperature for 30 min, and the assay volume was 10 μL.
as §4
The value of 665/620 Ratio minus the value of negative control wells without enzyme, then the obtained value was converted according to the following formula into inhibition rate (%)=(1−Ratiotest/Ratiomax)×100%. Ratiomax was a positive control without tested compound, and Ratiotest was the value of each concentration of different compounds. IC50 (nM) data was obtained by 4 parameter curve fitting (see Table 1).

[4] = target: T4, Recombinant human TRKC (Homo sapiens, UniProt Q16288); experiment: In vitro activity test on TRKC kinase (HTRF KinEASE TK); conditions: 25.64 μM ATP, 40 min
T4 construct: purchased Carna Biosciences
T4 sequence (Q16288 32-839): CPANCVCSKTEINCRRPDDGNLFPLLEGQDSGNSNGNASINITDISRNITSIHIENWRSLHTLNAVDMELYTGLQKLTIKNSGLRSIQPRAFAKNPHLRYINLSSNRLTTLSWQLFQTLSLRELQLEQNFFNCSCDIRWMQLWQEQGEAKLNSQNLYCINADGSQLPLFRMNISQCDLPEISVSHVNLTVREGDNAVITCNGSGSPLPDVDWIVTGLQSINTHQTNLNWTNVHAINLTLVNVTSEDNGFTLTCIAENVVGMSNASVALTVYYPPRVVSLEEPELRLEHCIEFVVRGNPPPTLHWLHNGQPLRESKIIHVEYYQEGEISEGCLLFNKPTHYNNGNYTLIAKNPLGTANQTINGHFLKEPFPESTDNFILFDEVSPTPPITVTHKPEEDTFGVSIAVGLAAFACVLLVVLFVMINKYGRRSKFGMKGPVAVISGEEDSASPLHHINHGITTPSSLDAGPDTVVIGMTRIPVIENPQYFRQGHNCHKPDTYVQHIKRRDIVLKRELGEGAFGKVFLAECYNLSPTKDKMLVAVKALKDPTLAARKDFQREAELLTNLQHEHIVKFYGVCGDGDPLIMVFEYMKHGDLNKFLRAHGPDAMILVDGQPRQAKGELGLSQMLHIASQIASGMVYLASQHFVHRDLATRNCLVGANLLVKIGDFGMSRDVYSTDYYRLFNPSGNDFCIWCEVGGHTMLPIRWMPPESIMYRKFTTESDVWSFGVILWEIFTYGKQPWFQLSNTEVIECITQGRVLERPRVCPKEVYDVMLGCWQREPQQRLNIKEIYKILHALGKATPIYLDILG
Description: as §1, §2, §3
0.037 ng/μL TRKC protein kinase, 1 μM TK Substrate-biotin polypeptide substrate, 25.64 μM ATP, 1× enzymatic buffer, 5 mM MgCl2, and 1 mM DTT. The detection plate was White Proxiplate 384-Plus plate (PerkinElmer), and incubated at room temperature for 40 min, and the assay volume was 10 μL.
as §4, §5

T1 sequence (P04629 33-796): as the sequence (P04629 33-796 G595R) above, with R563G counted along it

Row | Structure (SMILES) | IC50 [1] [nM] | IC50 [2] [nM] | IC50 [3] [nM] | IC50 [4] [nM]
1 | OC1CCC(Nc2ccnc3ccc(N4CCC[C@@H]4c4cc(F)ccc4F)nc23)C1 (stereo partly drawn) [Example 1, 3-((6-((R)-2-(2,5-difluorophenyl)pyrrolidin-1-yl)-1,5-naphthyridin-4-yl)amino)cyclopentane-1-ol] | < 10 | < 50 | < 50 | < 10
2 | O[C@@H]1CCN(c2ccnc3ccc(N4CCC[C@@H]4c4cc(F)ccc4F)nc23)C1 [Example 3, (R)-1-(6-((R)-2-(2,5-difluorophenyl)pyrrolidin-1-yl)-1,5-naphthyridin-4-yl)pyrrolidin-3-ol] | < 150 | < 500 | – | < 500
3 | CN(C)c1ccnc2ccc(N3CCC[C@@H]3c3cc(F)ccc3F)nc12 [Example 4, (R)-6-(2-(2,5-difluorophenyl)pyrrolidin-1-yl)-N,N-dimethyl-1,5-naphthyridin-4-amine] | < 10 | < 10 | – | < 10
4 | O[C@H]1CCN(c2ccnc3ccc(N4CCC[C@@H]4c4cc(F)ccc4F)nc23)C1 [Example 5, (S)-1-(6-((R)-2-(2,5-difluorophenyl)pyrrolidin-1-yl)-1,5-naphthyridin-4-yl)pyrrolidin-3-ol] | < 100 | < 500 | – | < 150
5 | OCCNc1ccnc2ccc(N3CCC[C@@H]3c3cc(F)ccc3F)nc12 [Example 6, (R)-2-((6-(2-(2,5-Difluorophenyl)pyrrolidin-1-yl)-1,5-naphthyridin-4-yl)amino)ethan-1-ol] | < 100 | < 500 | – | < 500
6 | O=C(Nc1ccnc2ccc(N3CCC[C@@H]3c3cc(F)ccc3F)nc12)c1cnc(N2CC[C@H](O)C2)nc1 [Example 8, N-(6-((R)-2-(2,5-difluorophenyl)pyrrolidin-1-yl)-1,5-naphthyridin-4-yl)-2-((S)-3-hydroxypyrrolidin-1-yl)pyrimidin-5-carboxamide] | < 10 | < 1 | – | < 10
7 | COc1ccc(CNc2ccnc3ccc(N4CCC[C@@H]4c4cc(F)ccc4F)nc23)cc1 [Example 9, (R)-6-(2-(2,5-Difluorophenyl)pyrrolidin-1-yl)-N-(4-methoxybenzyl)-1,5-naphthyridin-4-amine] | < 50 | < 50 | – | < 50
8 | O=C1CC(n2cc(-c3ccnc4ccc(N5C[C@@H](F)C[C@@H]5c5cc(F)ccc5F)nc34)cn2)CCN1 (stereo partly drawn) [Example 19, 4-(4-(6-((2R,4S)-2-(2,5-difluorophenyl)-4-fluoropyrrolidin-1-yl)-1,5-naphthyridin-4-yl)-1H-pyrazol-1-yl)piperidin-2-one] | < 10 | < 500 | – | < 500
9 | Fc1ccc(F)c([C@H]2C[C@H](F)CN2c2ccc3ncc(Cl)c(-c4cnn([C@H]5CCCNC5)c4)c3n2)c1 [Example 55, 7-chloro-2-((2R,4S)-2-(2,5-difluorophenyl)-4-fluoropyrrolidin-1-yl)-8-(1-((S)-piperidin-3-yl)-1H-pyrazol-4-yl)-1,5-naphthyridine] | < 10 | < 500 | – | < 500
10 | CC1(O)CCN(c2ncc(-c3ncnc4ccc(N5C[C@@H](F)C[C@@H]5c5cc(F)ccc5F)nc34)cn2)C1 (stereo partly drawn) [Example 85, 1-(5-(6-((2R,4S)-2-(2,5-difluorophenyl)-4-fluoropyrrolidin-1-yl)pyrido[3,2-d]pyrimidine-4-yl)pyrimidin-2-yl)-3-methylpyrrolidin-3-ol] | < 1 | < 1 | < 10 | < 1
11 | Fc1ccc(F)c([C@H]2C[C@H](F)CN2c2ccc3ncnc(-c4cn(C5CCNCC5)nn4)c3n2)c1 [Example 86, 6-((2R,4S)-2-(2,5-Difluorophenyl)-4-fluoropyrrolidin-1-yl)-4-(1-(piperidin-4-yl)-1H-1,2,3-triazol-4-yl)pyrido[3,2-d]pyrimidine] | < 1 | < 10 | < 10 | < 1

Results, then the compound that gave them:

Row | IC50 [1] [nM] | IC50 [2] [nM] | IC50 [3] [nM] | IC50 [4] [nM] | Structure (SMILES)
12 | < 1 | < 10 | – | < 1 | Fc1ccc(F)c([C@H]2C[C@H](F)CN2c2ccc3ncc(Cl)c(-c4cnc(N5CCNCC5)s4)c3n2)c1 [Example 60, 5-(3-Chloro-6-((2R,4S)-2-(2,5-difluorophenyl)-4-fluoropyrrolidin-1-yl)-1,5-naphthyridin-4-yl)-2-(piperazin-4-yl)thiazole]
13 | < 1 | – | – | – | O=C(Nc1c(Cl)cnc2ccc(N3C[C@@H](F)C[C@@H]3c3cc(F)ccc3F)nc12)C1CCNCC1 [Example 62, N-(3-Chloro-6-((2R,4S)-2-(2,5-difluorophenyl)-4-fluoropyrrolidin-1-yl)-1,5-naphthyridin-4-yl) piperidin-4-carboxamide]
14 | < 1 | – | – | – | Fc1ccc(F)c([C@H]2C[C@H](F)CN2c2ccc3nncc(-c4cnn(C5CCNCC5)c4)c3n2)c1 [Example 64, 6-((2R,4S)-2-(2,5-difluorophenyl)-4-fluoropyrrolidin-1-yl)-4-(1-(piperidin-4-yl)-1H-pyrazol-4-yl)pyrido[3,2-c]pyridazine]
15 | < 1 | < 10 | < 10 | < 10 | O[C@H]1CCN(c2nc(-c3ncnc4ccc(N5C[C@@H](F)C[C@@H]5c5cc(F)ccc5F)nc34)no2)C1 [Example 68, (S)-1-(3-(6-((2R,4S)-2-(2,5-difluorophenyl)-4-fluoropyrrolidin-1-yl)pyrido[3,2-d]pyrimidin-4-yl)-1,2,4-oxadiazol-5-yl)pyrrolidin-3-ol]
16 | < 1 | < 10 | < 10 | < 10 | Fc1ccc(F)c([C@H]2C[C@H](F)CN2c2ncc3ncnc(-c4cnn(C5CCNCC5)c4)c3n2)c1 [Example 76, 2-((2R,4S)-2-(2,5-difluorophenyl)-4-fluoropyrrolidin-1-yl)-8-(1-(piperidin-4-yl)-1H-pyrazol-4-yl)pyrimido[5,4-d]pyrimidine]
17 | < 1 | < 10 | < 10 | < 10 | OC1CCN(c2nc(-c3ncnc4ccc(N5C[C@@H](F)C[C@@H]5c5cc(F)ccc5F)nc34)no2)CC1 [Example 80, 1-(3-(6-((2R,4S)-2-(2,5-difluorophenyl)-4-fluoropyrrolidin-1-yl)pyrido[3,2-d]pyrimidin-4-yl)-1,2,4-oxadiazol-5-yl)piperidin-4-ol]
18 | < 1 | < 10 | < 10 | < 10 | Fc1ccc(F)c([C@H]2C[C@H](F)CN2c2ccc3ncnc(-c4noc(C5CCNCC5)n4)c3n2)c1 [Example 81, 3-(6-((2R,4S)-2-(2,5-difluorophenyl)-4-fluoropyrrolidin-1-yl)pyrido[3,2-d]pyrimidin-4-yl)-5-(piperidin-4-yl)-1,2,4-oxadiazole]
19 | < 1 | < 10 | < 10 | < 10 | Fc1ccc(F)c([C@H]2C[C@H](F)CN2c2ccc3ncc(F)c(-c4cn(C5CCNCC5)nn4)c3n2)c1 [Example 83, 2-((2R,4S)-2-(2,5-difluorophenyl)-4-fluoropyrrolidin-1-yl)-7-fluoro-8-(1-(piperidin-4-yl)-1H-1,2,3-triazol-4-yl)-1,5-naphthyridine]
20 | < 1 | < 10 | – | < 1 | OC1CCN(c2nc(-c3c(F)cnc4ccc(N5C[C@@H](F)C[C@@H]5c5cc(F)ccc5F)nc34)no2)CC1 [Example 84, 1-(3-(6-((2R,4S)-2-(2,5-difluorophenyl)-4-fluoropyrrolidin-1-yl)-3-fluoro-1,5-naphthyridin-4-yl)-1,2,4-oxadiazol-5-yl)piperidin-4-ol]
